Laboratory results taken from patent US20220143061A1, “3'3'-CYCLIC DINUCLEOTIDES AND PRODRUGS THEREOF” (INSTITUTE OF ORGANIC CHEMISTRY AND BIOCHEMISTRY ASCR, V.V.I., priority 2019, published 2022).
Read-outs that look alike come from different tables or passages of the source.

Key:
WT STING = target: T1, WT STING (Homo sapiens, UniProt Q86WV6, H232R); test: Differential Scanning Fluorimetry with WT STING; type: binding; settings: thermal shift vs apoprotein; 150 μM CDN; truncated WT STING 0.1 mg/ml
T1 construct: 8xHis (N, cleaved yes); SUMO (N, cleaved yes); made in house
Protocol: (§1) Purified PCR products were cleaved with restriction enzymes BamHI (cat. #R0136S, NEB, Ipswich, USA) and NotI (cat. #R0189S, NEB, Ipswich, USA) and cloned into the pSUMO vector linearized with the identical enzymes.
(§2) DNase I (cat. #D5025, Sigma Aldrich, Czech Republic) and RNase A (cat. #R6513, Sigma Aldrich, Czech Republic) were added (final concentration 50 μg/ml) together with MgCl2 (final concentration 5 mmol·l^−1) to the homogenate and bacteria were lysed using French Press G-M™ High-Pressure Cell Press Homogenizer (1500 psi, 3 cycles). […] The resin was poured into a chromatography column, washed with 50 ml buffer A (50 mmol·l^−1 TrisCl (pH 8.0), 800 mmol·l^−1 NaCl, 3 mmol·l^−1 β-mercaptoethanol; 10% glycerol; 20 mmol·l^−1 imidazole) and 8-His-SUMO tagged STING proteins were eluted with 15 ml buffer A containing 300 mmol·l^−1 imidazole. […] Proteins were concentrated with Amicon® Ultra-15 10 K device (cat. #UFC901008, Merck Millipore, Billerica, USA) and flash frozen in liquid N2.
(§3) 20 μL solutions of the reaction mixtures were pipetted in triplicates into 96 well optical reaction plates and thermal denaturation of samples were performed on real time PCR cycler (LightCycler® 480 Instrument II—Roche, Basel, Switzerland). The first derivative of the thermal denaturation curves was performed to calculate denaturing temperatures of STING-CDN complexes and STING apoproteins. The thermal shift for each CDN was calculated by subtracting the average denaturing temperature of STING apoprotein from the average denaturing temperature of STING CDN complex.

AQ STING (G230A-R293Q) = target: T2, AQ STING (G230A-R293Q) (Homo sapiens, UniProt Q86WV6, G230A/H232R/R293Q); test: Differential Scanning Fluorimetry with AQ STING; type: binding; settings: thermal shift vs apoprotein; 150 μM CDN; truncated AQ STING 0.1 mg/ml
T2 construct: 8xHis (N, cleaved yes); SUMO (N, cleaved yes); made in house
Protocol: as §1, §2, §3

[1] = target: T3, human wild type STING (WT STING) (Homo sapiens, UniProt Q86WV6, H232R); test: Digitonin assay using 293T wtSTING-FL reporter cells; type: cell-based; settings: 293T wtSTING-FL cells, digitonin buffer 30 minutes, then 5 hours; ISRE firefly luciferase
T3 construct: host or cells: 293T cells (ATCC CRL-3216), stably double transfected with pUNO1-hSTING-WT and pGL64.27-4×ISRE
Source text: (§4) Two complementary oligonucleotides of the sequence […] […] […] […] […] The oligonucleotides were mixed in equal molar amounts, hybridized, and cleaved by restriction endonucleases HindIII (cat. #. R0104S, NEB, Ipswich, USA) and BglII (cat. #R0144S, NEB, Ipswich, USA). Ultimately, they were ligated into plasmid pGL4.27 (cat. #E6651, Promega, Madison, USA) linearized with the same enzymes. As result the sequence with four ISRE sites was placed upstream of the minimum promoter of firefly luciferase reporter gene.
(§5) After 5 minutes incubation at room temperature (RT), 250 μL of the mixture was added dropwise to the cells in one well. Cells were incubated 36 hours at 37° C. with 5% CO2, and then detached with 0.05% Trypsin and 0.22 g/L EDTA (both cat. #L0941, Biowest, Riverside, USA).
(§6) Transfected cells were seeded onto poly-D-lysine coated six well plates at density 50,000 cells per 1 cm^2 in DMEM medium with high glucose containing 10% heat inactivated FBS, 30 μg/mL blasticidin (cat. #ant-b1-05, InvivoGen, San Diego, USA), 0.06 mg/ml Penicillin G and 0.1 mg/ml Streptomycin Sulfate (both cat. #. L0018, Biowest, Riverside, USA). The medium was replenished every 3-4 days until visible colonies of cells resistant to blasticidin were formed.
(§7) Blasticidin resistant cells stably expressing WT STING were further transfected with pGL64.27-4×ISRE plasmid following the same procedure as described above. […] Homogeneous culture of stably double transfected cells was prepared by limiting dilution of cells in 96 well plates and wells with cells were selected that originated from a single cell.
The medium was removed next day and three fold serial dilutions of compounds in Digitonin buffer containing 50 mmol·l^−1 HEPES (cat. #H3375, Sigma Aldrich, Czech Republic) pH 7.0, 100 mmol·l^−1 KCl, 3 mmol·l^−1 MgCl2, 0.1 mmol·l^−1 DTT (cat. #D0632, Sigma Aldrich, Czech Republic), 85 mmol·l^−1 Sucrose (cat. #S7903, Sigma Aldrich, Czech Republic), 0.2% BSA (cat. #A2153, Sigma Aldrich, Czech Republic), 1 mmol·l^−1 ATP (cat. #A1852, Sigma Aldrich, Czech Republic), 0.1 mmol·l^−1 GTP (cat. #G8877, Sigma Aldrich, Czech Republic), and 10 μg/mL Digitonin A (cat. #D141, Sigma Aldrich, Czech Republic) were added to the cells. The buffer was removed after 30 minutes incubation at 37° C. with 5% C02, the cells were washed once with 100 μl of cultivation medium, and 100 μl of medium was added to each well. The plates with cells were incubated for 5 hours at 37° C. with 5% CO2, 50 μl of the medium was removed and 30 μl of ONE-Glo™ Luciferase Assay System reagent (cat. #E6120, Promega, Madison, USA) was added to each well. Luminesce was read on Synergy H1 (Biotek, Winooski, USA).

[2] = target: T3, human wild type STING (WT STING); test: 293T WT STING standard reporter assay; type: cell-based; settings: no digitonin, 7 hours, ISRE firefly luciferase
Source text: as §4, §5, §6, §7
The medium was removed the next day and three-fold serial dilutions of compounds in 100 μl medium were added to the cells. The plates were incubated for 7 hours at 37° C. with 5% CO2. Next 50 μl of the medium was removed from wells, and 30 μl of ONE-Glo™ Luciferase Assay System reagent (cat. #E6120, Promega, Madison, USA) was added to each well. Luminescence was read on Synergy H1 (Biotek, Winooski, USA).

[3] = test system: peripheral blood mononuclear cell (PBMC); test: Peripheral blood mononuclear cell assay (cytokine levels); type: cell-based
Protocol: Selected compounds were tested in an in vitro peripheral blood mononuclear cell (PBMC) assay. […] Serially diluted tested compounds were added to wells in 50 μl of cultivation medium and cell were incubated with compounds for 1 h at 37° C. with 5% CO2. Plates with cells were then spun 500 g for 5 minutes and medium was removed. Cells were washed twice with the cell culture medium by the use of centrifugation and gently resuspended in 100 μl medium without compounds. After 15 hour incubation at 37° C. with 5% CO2, the cell culture medium was collected and the levels of interferon-alpha (INF-α), interferon-gamma (INF-γ) and tumor necrosis factor-alpha (TNF-α) were determined with ProcartaPlex Assays (ThermoFisher, Waltham, USA) and MAGPIX System (Merck KGaA, Darmstadt, Germany). […] Values reported are an average of runs from one to four donors.

[4] = 293T wtSTING-FL cells, read-out: 293T WT STING EC50
[5] = 1 h with compound, wash, 15 hour incubation, average of one to four donors, read-out: PBMC EC50 IFN-α
[6] = 1 h with compound, wash, 15 hour incubation, average of one to four donors, read-out: PBMC EC50 IFN-γ
[7] = 1 h with compound, wash, 15 hour incubation, average of one to four donors, read-out: PBMC EC50 TNF-α
[8] = 293T WT STING EC50, 293T wtSTING-FL cells
[9] = read-out: PBMC EC50 IFN-α, 1 h with compound, wash, 15 hour incubation, average of one to four donors
[10] = read-out: PBMC EC50 IFN-γ, 1 h with compound, wash, 15 hour incubation, average of one to four donors

T2 sequence (Q86WV6 140-343 G230A/H232R/R293Q): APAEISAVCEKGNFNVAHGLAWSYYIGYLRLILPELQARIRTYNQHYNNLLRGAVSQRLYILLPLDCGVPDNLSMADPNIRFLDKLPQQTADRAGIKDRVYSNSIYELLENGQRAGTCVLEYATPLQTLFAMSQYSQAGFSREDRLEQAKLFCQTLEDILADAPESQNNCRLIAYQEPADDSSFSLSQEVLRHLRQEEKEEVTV
T3 sequence (Q86WV6 whole entry H232R): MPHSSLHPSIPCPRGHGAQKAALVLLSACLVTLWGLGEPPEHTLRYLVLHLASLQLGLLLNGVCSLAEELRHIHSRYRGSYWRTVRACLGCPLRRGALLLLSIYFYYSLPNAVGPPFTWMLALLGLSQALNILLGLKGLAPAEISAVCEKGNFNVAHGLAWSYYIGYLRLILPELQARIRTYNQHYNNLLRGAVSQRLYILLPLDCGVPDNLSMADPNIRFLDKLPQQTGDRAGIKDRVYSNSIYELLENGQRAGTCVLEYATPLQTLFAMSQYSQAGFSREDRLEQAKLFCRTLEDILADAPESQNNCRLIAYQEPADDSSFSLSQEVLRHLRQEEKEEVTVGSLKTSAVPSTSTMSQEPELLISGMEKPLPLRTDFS
T1 sequence (Q86WV6 140-343 H232R): as the sequence (Q86WV6 140-343 G230A/H232R/R293Q) above, with A91G, Q154R counted along it

Row | EC50 [2, 4] [nM] | SMILES | EC50 [3, 5] [nM] | EC50 [3, 6] [nM] | EC50 [3, 7] [nM] | other results
1 | 50 | CC(C)OC(=O)OCOP1(=O)CO[C@H]2[C@@H](F)[C@H](n3cnc4c(N)ncnc43)O[C@@H]2COP(=O)(OCOC(=O)OC(C)C)O[C@H]2[C@@H](F)[C@H](n3cnc4c(N)ncnc43)O[C@@H]2CO1 (single isomer, unassigned) [Compound 42c] | 600 | 300 | 600 | 
2 | 10 | CCC(C)(C)C(=O)OCOP1(=O)CO[C@H]2[C@@H](F)[C@H](n3cnc4c(N)ncnc43)O[C@@H]2COP(=O)(OCOC(=O)C(C)(C)CC)O[C@H]2[C@@H](F)[C@H](n3cnc4c(N)ncnc43)O[C@@H]2CO1 (single isomer, unassigned) [Compound 44a] | 1000 | 500 | 600 | 
3 | 6 | CCC(C)(C)C(=O)OCOP1(=O)CO[C@H]2[C@@H](F)[C@H](n3cnc4c(N)ncnc43)O[C@@H]2COP(=O)(OCOC(=O)C(C)(C)CC)O[C@H]2[C@@H](F)[C@H](n3cnc4c(N)ncnc43)O[C@@H]2CO1 (single isomer, unassigned) [Compound 44c] | 100 | 1700 | 1000 | 
4 | 60 | CC1(C(=O)OCOP2(=O)CO[C@H]3[C@@H](F)[C@H](n4cnc5c(N)ncnc54)O[C@@H]3COP(=O)(OCOC(=O)C3(C)CCCCC3)O[C@H]3[C@@H](F)[C@H](n4cnc5c(N)ncnc54)O[C@@H]3CO2)CCCCC1 (single isomer, unassigned) [Compound 45a] | 1000 | 8000 | 500 | 
5 | 70 | CC1(C(=O)OCOP2(=O)CO[C@H]3[C@@H](F)[C@H](n4cnc5c(N)ncnc54)O[C@@H]3COP(=O)(OCOC(=O)C3(C)CCCCC3)O[C@H]3[C@@H](F)[C@H](n4cnc5c(N)ncnc54)O[C@@H]3CO2)CCCCC1 (single isomer, unassigned) [Compound 45c] | 300 | 200 | 400 | 
6 | 5 | CCCCCCCC(=O)OCOP1(=O)CO[C@H]2[C@@H](F)[C@H](n3cnc4c(N)ncnc43)O[C@@H]2COP(=O)(OCOC(=O)CCCCCCC)O[C@H]2[C@@H](F)[C@H](n3cnc4c(N)ncnc43)O[C@@H]2CO1 (single isomer, unassigned) [Compound 46a] | 3 |  | 1 | 
7 | 1 | CCCCCCCC(=O)OCOP1(=O)CO[C@H]2[C@@H](F)[C@H](n3cnc4c(N)ncnc43)O[C@@H]2COP(=O)(OCOC(=O)CCCCCCC)O[C@H]2[C@@H](F)[C@H](n3cnc4c(N)ncnc43)O[C@@H]2CO1 (single isomer, unassigned) [Compound 46c] | 20 |  | 10 | 

The remaining lines, values behind:

Row | SMILES | EC50 [2, 4] [nM] | EC50 [3, 5] [nM] | EC50 [3, 6] [nM] | EC50 [3, 7] [nM] | other results
8 | Nc1ncnc2c1ncn2[C@@H]1O[C@@H]2COP(=O)(S)O[C@H]3[C@@H](F)[C@H](n4cnc5c(N)ncnc54)O[C@@H]3COP(=O)(S)CO[C@H]2[C@H]1F (single isomer, unassigned) [Compound 14a] | 15000 |  |  |  | DSF ΔTm WT STING (WT STING): 8.3 °C; DSF ΔTm AQ STING (AQ STING (G230A-R293Q)): 16.1 °C; EC50 [1]: 60 nM
9 | CCCCCCCCCCCC(=O)OCSP1(=O)CO[C@H]2[C@@H](F)[C@H](n3cnc4c(N)ncnc43)O[C@@H]2COP(=O)(SCOC(=O)CCCCCCCCCCC)O[C@H]2[C@@H](F)[C@H](n3cnc4c(N)ncnc43)O[C@@H]2CO1 (single isomer, unassigned) [Compound 43b] |  |  |  |  | EC50 [2, 8]: 30 nM; EC50 [3, 9]: 400 nM; EC50 [3, 10]: 300 nM; EC50 ([3]; read-out: PBMC EC50 TNF-α, PBMC, 1 h with compound, wash, 15 hour incubation, average of one to four donors): 200 nM
10 | CCCCCCCCCCCC(=O)OCSP1(=O)CO[C@H]2[C@@H](F)[C@H](n3cnc4c(N)ncnc43)O[C@@H]2COP(=O)(SCOC(=O)CCCCCCCCCCC)O[C@H]2[C@@H](F)[C@H](n3cnc4c(N)ncnc43)O[C@@H]2CO1 (single isomer, unassigned) [Compound 43c] |  |  |  |  | EC50 [2, 8]: 60 nM; EC50 [3, 9]: 900 nM; EC50 [3, 10]: 100 nM; EC50 ([3]; read-out: PBMC EC50 TNF-α, 1 h with compound, wash, 15 hour incubation, average of one to four donors): 300 nM
11 | Nc1nc2c(ncn2[C@@H]2O[C@@H]3COP(=O)(O)O[C@@H]4[C@H](O)[C@@H](COP(=O)(O)O[C@@H]2[C@@H]3O)O[C@H]4n2cnc3c(N)ncnc32)c(=O)[nH]1 [2′2′-cGAMP, reference compound] | 10200 |  |  |  | DSF ΔTm AQ STING (AQ STING (G230A-R293Q)): 19.4 °C; EC50 [1]: 30 nM
12 | Nc1ncnc2c1ncn2[C@@H]1O[C@@H]2COP(=O)(O)O[C@H]3[C@@H](O)[C@H](n4cnc5c(N)ncnc54)O[C@@H]3COP(=O)(O)O[C@H]2[C@H]1O [3′3′-c-di-AMP, reference compound] | 202000 |  |  |  | DSF ΔTm WT STING (WT STING): 2.5 °C; DSF ΔTm AQ STING (AQ STING (G230A-R293Q)): 9.0 °C; EC50 [1]: 300 nM
